Several values for one entry are separate records, joined by “and”; a condition that tells them apart may be missing. Equal entries are not always repeated.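 Briefly, cells in 96-well plates were exposed to five compound concentrations for 48 h, and endpoints were estimated by linear interpolation. Here, GI50 denotes the concentration required for 50% inhibition of growth.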 Activity calls are given as the source filed them. No stated cut-off is given here; in the data, active = GI50 up to about 1.1 µM and inactive = higher. Non-standard residues stand in square brackets, D forms with d. Residues, ends and D or L forms follow the SMILES beside them. ξ: configuration not given here. *: point of attachment. NMeF = CN[C@@H](Cc1ccccc1)C(=O)O; ξNMeV = CNC(C(=O)O)C(C)C; Boc = CC(C)(C)OC(=O)*; OBn = c1ccc(CO*)cc1
How the values were obtained:
Test in all cases: growth of human tumour cells (NCI), 48 h
DMS-114 = test system: DMS-114
LXFL 529 = test system: LXFL 529
DMS-273 = test system: DMS-273
XF498 = test system: XF498
SNB-78 = test system: SNB-78
KM-20L2 = test system: KM-20L2
DLD-1 = test system: DLD-1
HOP-18 = test system: HOP-18
RXF 631 = test system: RXF 631

| SMILES | GI50 (DMS-114) | GI50 (LXFL 529) | GI50 (DMS-273) | GI50 (XF498) | GI50 (SNB-78) | GI50 (KM-20L2) | GI50 (DLD-1) | GI50 (HOP-18) | GI50 (RXF 631) |
| --- | --- | --- | --- | --- | --- | --- | --- | --- | --- |
| C=CCn1c(=S)sc2c(O)ncnc21 | > 100 µM (inactive) | > 100 µM (inactive) | > 100 µM (inactive) | > 100 µM (inactive) | > 100 µM (inactive) | > 100 µM (inactive) | > 100 µM (inactive) |  |  |
| Sc1nnc(-c2cccnc2)[nH]1 | > 100 µM (inactive) | > 100 µM (inactive) | > 100 µM (inactive) | > 100 µM (inactive) | > 100 µM (inactive) | > 100 µM (inactive) | > 100 µM (inactive) | > 100 µM (inactive) |  |
| COC(=O)C(C(=O)C(=O)Nc1ccc([N+](=O)[O-])cc1)c1nc2ccc([N+](=O)[O-])cc2nc1O (centres undefined) | 68.2 µM (inactive) | 43.5 µM (inactive) | > 100 µM (inactive) |  | > 100 µM (inactive) | > 100 µM (inactive) | > 100 µM (inactive) | > 100 µM (inactive) | > 100 µM (inactive) |
| COC(=O)C(Cc1nc2ccccc2nc1C)/C(=N\NC(N)=O)C(=O)Nc1cccc([N+](=O)[O-])c1 (centres undefined) | 51.5 µM (inactive) | 37.7 µM (inactive) |  | > 100 µM (inactive) | > 100 µM (inactive) | > 100 µM (inactive) | > 100 µM (inactive) | > 100 µM (inactive) | > 100 µM (inactive) |
| Cc1ccc(N2C(=O)/C(=C3\Sc4c(nc(C)[nH]c4=O)N3c3ccccc3)SC2=S)cc1 | 72.6 µM (inactive) | 18.5 µM (inactive) | 34.6 µM (inactive) | 20.9 µM (inactive) | 39 µM (inactive) | > 100 µM (inactive) | 91.2 µM (inactive) |  |  |
| CCOC(=O)/C(=C/c1cccc(OC)c1)N(CC)CC | > 100 µM (inactive) | > 100 µM (inactive) | > 100 µM (inactive) | > 100 µM (inactive) | > 100 µM (inactive) | > 100 µM (inactive) |  |  |  |
| C=CCCCCCC(O)C(O)C/C=C\C/C=C\CC (centres undefined) | > 16.8 µM (inactive) | > 18.8 µM (inactive) | > 18.8 µM (inactive) | > 18.8 µM (inactive) | > 18.8 µM (inactive) | > 18.8 µM (inactive) | > 18.8 µM (inactive) | > 18.8 µM (inactive) |  |
| Clc1cc2n[se]nc2cc1Cl | > 100 µM (inactive) | > 100 µM (inactive) | > 100 µM (inactive) | > 100 µM (inactive) | > 100 µM (inactive) | > 100 µM (inactive) | > 100 µM (inactive) | > 100 µM (inactive) | > 100 µM (inactive) |
| O=C1c2ccccc2N2OC3(N4CCCC4)CCCC3C12c1ccccc1 (centres undefined) | 83.4 µM (inactive) | 67.8 µM (inactive) | 67.6 µM (inactive) | 92.3 µM (inactive) | > 100 µM (inactive) | > 100 µM (inactive) | > 100 µM (inactive) | > 100 µM (inactive) |  |
| C1COCCN1.S=C(S)N1CCOCC1 | 0.279 µM (active) | 1.34 µM (inactive) | 1.38 µM (inactive) | 1.92 µM (inactive) | 41.5 µM (inactive) | 1.43 µM (inactive) | 0.628 µM (active) | > 100 µM (inactive) |  |
| COc1cccc2c(SCC(=O)Nc3ccccc3-c3ccccc3NC(=O)CSc3c4ccccc4nc4c(OC)cccc34)c3ccccc3nc12 | 29.1 µM (inactive) |  | 71.3 µM (inactive) | 76.6 µM (inactive) | > 100 µM (inactive) | > 100 µM (inactive) | > 100 µM (inactive) |  | 47.6 µM (inactive) |
| CCCC(N)C(=O)c1ccccc1 (centres undefined) | > 100 µM (inactive) | > 100 µM (inactive) | > 100 µM (inactive) | > 100 µM (inactive) | > 100 µM (inactive) | > 100 µM (inactive) | > 100 µM (inactive) | > 100 µM (inactive) |  |
| COC1=C(NC(C)=O)C(=O)c2nc3n(c2C1=O)CCC3 | 12.2 µM (inactive) |  | 18.7 µM (inactive) | 19.1 µM (inactive) | 13 µM (inactive) | 38.3 µM (inactive) | 15 µM (inactive) | 18.9 µM (inactive) |  |
| NC1=NS(=O)(=O)Nc2nc(-c3ccc(Cl)cc3)c(-c3ccc(Cl)cc3)nc21 | 32.1 µM (inactive) | 34.9 µM (inactive) | > 100 µM (inactive) | 69.3 µM (inactive) | > 100 µM (inactive) |  | > 100 µM (inactive) | > 100 µM (inactive) | > 100 µM (inactive) |
| CC1=C(C(=O)Nc2c(C)cccc2C)C(c2ccc3c(c2)OCO3)C(C(=O)Nc2c(C)cccc2C)=C(C)N1 | 16.6 µM (inactive) | 18 µM (inactive) |  |  | 17.6 µM (inactive) | 15.5 µM (inactive) | 19.3 µM (inactive) | 18.9 µM (inactive) | 16.7 µM (inactive) |
| CCCCCC(CN1CCOCC1)C(=O)/C=C/c1ccccc1 (centres undefined) | 1.79 µM (inactive) |  | 2.31 µM (inactive) | 1.72 µM (inactive) | 6.9 µM (inactive) | 3.03 µM (inactive) |  |  |  |
| O=S(O)CCCCSSCC(O)C(O)CSSCCCCS(=O)O (centres undefined) | 18.3 µM (inactive) and 14.6 µM (inactive) | 9.35 µM (inactive) and 12.5 µM (inactive) | 35 µM (inactive) and 19.7 µM (inactive) | 12.4 µM (inactive) and 19 µM (inactive) | 18.2 µM (inactive) and 20.9 µM (inactive) | > 100 µM (inactive) and 50.6 µM (inactive) | 41.1 µM (inactive) and 68.4 µM (inactive) | > 100 µM (inactive) | 22.2 µM (inactive) and 29.2 µM (inactive) |
| COCOCC[C@@H]1CC=CC(NC(=O)OCc2ccccc2)C1/C=C/C(=O)CCC1OCCO1 (some centres undefined) | 29.9 µM (inactive) | 22.4 µM (inactive) | 23 µM (inactive) | 34.4 µM (inactive) | 48.1 µM (inactive) | 34.9 µM (inactive) | 17.1 µM (inactive) | 34.3 µM (inactive) |  |
| CCN(CC)CCCCC1CCN(CC(=O)N2c3ccccc3NC(=O)c3ccccc32)CC1 | > 100 µM (inactive) | > 100 µM (inactive) | > 100 µM (inactive) | > 100 µM (inactive) | > 100 µM (inactive) |  | > 100 µM (inactive) |  | > 100 µM (inactive) |
| [N-]=[N+]=NC1C(Cl)C(=O)NC(=O)N1[C@H]1C[C@H](O)[C@@H](CO)O1 (some centres undefined) | > 100 µM (inactive) | > 100 µM (inactive) | > 100 µM (inactive) | > 100 µM (inactive) | > 100 µM (inactive) | > 100 µM (inactive) | > 100 µM (inactive) |  | > 100 µM (inactive) |
| CC(C)C(C(=O)N1CCC[C@@H]1C(=O)OCc1ccccc1)N(C)C(=O)C(C(C)C)N(C)C(=O)[C@H](Cc1ccccc1)N(C)C(=O)[C@H](NC(=O)OC(C)(C)C)C(C)C (some centres undefined) (Boc-[dV][NMeF][ξNMeV][ξNMeV][dP]-OBn) | 8.57 µM (inactive) | 8.81 µM (inactive) | 42.9 µM (inactive) | > 68.5 µM (inactive) | > 100 µM (inactive) | > 100 µM (inactive) | > 100 µM (inactive) | > 100 µM (inactive) |  |

— ChEMBL document CHEMBL1201862, “PubChem BioAssay data set” (2004)
